# Results reported in patent US11078228B2, “Ectonucleotidase inhibitors and methods of use thereof” (Calithera Biosciences, Inc., priority 2018, dated 2021).
# Target: recombinant CD73 (Homo sapiens (Human), UniProt P21589)
# Assay: Assay 2: Inhibition of the CD73 enzyme in vitro (0.05 nM CD73, 1 hour 37° C., Malachite Green)
# Type: biochemical
# Conditions: 0.05 nM CD73, 50 μM AMP, 1 hour at 37° C.
# Description: For measurements of soluble CD73 enzyme activity, recombinant CD73 was obtained from R&D Systems, Cat. No. 5795-EN-010. […] Reactions were allowed to proceed for 1 hour at 37° C. before the addition of 100 μL Malachite Green (Cell Signaling Technology, Cat. No. 12776). After 5 minutes at room temperature, absorbance at 630 nm was determined on a microplate spectrophotometer. The concentration of inorganic phosphate was determined using a phosphate standard curve.
# recombinant CD73, sequence (P21589 27-547): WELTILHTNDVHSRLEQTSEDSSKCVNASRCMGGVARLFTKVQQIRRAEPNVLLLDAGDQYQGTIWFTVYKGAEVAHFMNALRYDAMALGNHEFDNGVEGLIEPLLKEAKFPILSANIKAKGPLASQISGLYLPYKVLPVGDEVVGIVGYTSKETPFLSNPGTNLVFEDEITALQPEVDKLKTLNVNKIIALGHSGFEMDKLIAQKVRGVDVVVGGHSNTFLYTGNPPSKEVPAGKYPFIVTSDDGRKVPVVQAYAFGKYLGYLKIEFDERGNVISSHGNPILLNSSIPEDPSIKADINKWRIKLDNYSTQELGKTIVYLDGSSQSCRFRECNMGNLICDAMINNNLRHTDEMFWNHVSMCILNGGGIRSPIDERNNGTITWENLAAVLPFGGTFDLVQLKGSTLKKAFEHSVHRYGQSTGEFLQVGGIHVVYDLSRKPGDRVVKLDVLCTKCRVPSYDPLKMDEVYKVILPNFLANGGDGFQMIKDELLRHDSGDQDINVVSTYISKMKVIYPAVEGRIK
row,SMILES,IC50 [nM]
1,"C#C[C@@]1(O)[C@@H](COC(Cc2ccsc2)(C(=O)O)C(=O)O)O[C@@H](n2cnc3c(NCCO)nc(Cl)nc32)[C@@H]1O [Example 32, 2-(((2R,3S,4R,5R)-5-(2-chloro-6-((2-hydroxyethyl)amino)-9H-purin-9-yl)-3-ethynyl-3,4-dihydroxytetrahydrofuran-2-yl)methoxy)-2-(thiophen-3-ylmethyl)malonic acid]",3
2,"C#C[C@@]1(O)[C@@H](COC(Cc2ccccc2)(C(=O)O)C(=O)O)O[C@@H](n2cnc3c(N[C@H](C)c4ccccc4)nc(Cl)nc32)[C@@H]1O [Example 62, 2-benzyl-2-(((2R,3S,4R,5R)-5-(2-chloro-6-(((R)-1-phenylethyl)amino)-9H-purin-9-yl)-3-ethynyl-3,4-dihydroxytetrahydrofuran-2-yl)methoxy)malonic acid]",2
3,"C#C[C@@]1(O)[C@@H](COC(Cc2ccccc2)(C(=O)O)C(=O)O)O[C@@H](n2cnc3c(N(C)C(C)C)nc(Cl)nc32)[C@@H]1O [Example 82, 2-benzyl-2-(((2R,3S,4R,5R)-5-(2-chloro-6-(isopropyl(methyl)amino)-9H-purin-9-yl)-3-ethynyl-3,4-dihydroxytetrahydrofuran-2-yl)methoxy)malonic acid]",2
4,"C#C[C@@]1(O)[C@@H](COC(Cc2ccccc2)(C(=O)O)C(=O)O)O[C@@H](n2cnc3c(N(C)CCOC)nc(Cl)nc32)[C@@H]1O [Example 39, 2-benzyl-2-(((2R,3S,4R,5R)-5-(2-chloro-6-((2-methoxyethyl)-(methyl)amino)-9H-purin-9-yl)-3-ethynyl-3,4-dihydroxytetrahydrofuran-2-yl)methoxy)malonic acid]",3
5,"C#C[C@@H]1[C@@H](O)[C@H](n2cnc3c(N)nc(Cl)nc32)O[C@@H]1COC(Cc1ccccc1)(C(=O)O)C(=O)O [Compound 2, 2-(((2S,3R,4R,5R)-5-(6-amino-2-chloro-9H-purin-9-yl)-3-ethynyl-4-hydroxytetrahydrofuran-2-yl)methoxy)-2-benzylmalonic acid]",147
6,"C#C[C@@]1(O)[C@@H](COC(Cc2ccccc2)(C(=O)O)C(=O)O)O[C@@H](n2cnc3c(N4CC[C@H](O)C4)nc(Cl)nc32)[C@@H]1O [Example 65, 2-benzyl-2-(((2R,3S,4R,5R)-5-(2-chloro-6-((S)-3-hydroxypyrrolidin-1-yl)-9H-purin-9-yl)-3-ethynyl-3,4-dihydroxytetrahydrofuran-2-yl)methoxy)malonic acid]",1
7,"C#C[C@@]1(O)[C@@H](COC(Cc2ccc(-c3cccn(CC)c3=O)cc2)(C(=O)O)C(=O)O)O[C@@H](n2cnc3c(N)nc(Cl)nc32)[C@@H]1O [Example 20, 2-(((2R,3S,4R,5R)-5-(6-amino-2-chloro-9H-purin-9-yl)-3-ethynyl-3,4-dihydroxytetrahydrofuran-2-yl)methoxy)-2-(4-(1-ethyl-2-oxo-1,2-dihydropyridin-3-yl)benzyl)malonic acid]",0.2
8,"C=C[C@@]1(O)[C@@H](COC(Cc2ccccc2)(C(=O)O)C(=O)O)O[C@@H](n2cnc3c(N)nc(Cl)nc32)[C@@H]1O [Example 57, 2-(((2R,3S,4R,5R)-5-(6-amino-2-chloro-9H-purin-9-yl)-3,4-dihydroxy-3-vinyltetrahydrofuran-2-yl)methoxy)-2-benzylmalonic acid]",103
9,"C#C[C@@]1(O)[C@@H](COC(Cc2ccccc2)(C(=O)O)C(=O)O)O[C@@H](n2cnc3c(NCC4CCC4)nc(Cl)nc32)[C@@H]1O [Example 45, 2-benzyl-2-(((2R,3S,4R,5R)-5-(2-chloro-6-((cyclobutylmethyl)amino)-9H-purin-9-yl)-3-ethynyl-3,4-dihydroxytetrahydrofuran-2-yl)methoxy)malonic acid]",1
10,"C#C[C@@]1(O)[C@@H](COC(Cc2ccccc2)(C(=O)O)C(=O)O)O[C@@H](n2cnc3c(N4CC[C@H](CO)C4)nc(Cl)nc32)[C@@H]1O [Example 101, 2-benzyl-2-(((2R,3S,4R,5R)-5-(2-chloro-6-((S)-3-(hydroxymethyl)-pyrrolidin-1-yl)-9H-purin-9-yl)-3-ethynyl-3,4-dihydroxytetrahydrofuran-2-yl)methoxy)malonic acid]",1
11,"Nc1nc(Cl)nc2c1ncn2[C@@H]1O[C@H](COC(Cc2ccccc2)(C(=O)O)C(=O)O)[C@](O)(C#CC2CC2)[C@H]1O [Compound 4, 2-(((2R,3S,4R,5R)-5-(6-amino-2-chloro-9H-purin-9-yl)-3-(cyclopropylethynyl)-3,4-dihydroxytetrahydrofuran-2-yl)methoxy)-2-benzylmalonic acid]",0.5
12,"C#C[C@@]1(O)[C@@H](COC(Cc2ccoc2)(C(=O)O)C(=O)O)O[C@@H](n2cnc3c(N)nc(Cl)nc32)[C@@H]1O [Compound 8, 2-(((2R,3S,4R,5R)-5-(6-amino-2-chloro-9H-purin-9-yl)-3-ethynyl-3,4-dihydroxytetrahydrofuran-2-yl)methoxy)-2-(furan-3-ylmethyl)malonic acid]",2
13,"C#C[C@@]1(O)[C@@H](COC(Cc2ccccc2)(C(=O)O)C(=O)O)O[C@@H](n2cnc3c(N4CCC4)nc(Cl)nc32)[C@@H]1O [Example 88, 2-(((2R,3S,4R,5R)-5-(6-(azetidin-1-yl)-2-chloro-9H-purin-9-yl)-3-ethynyl-3,4-dihydroxytetrahydrofuran-2-yl)methoxy)-2-benzylmalonic acid]",1.2
14,"C#C[C@@]1(O)[C@@H](COC(Cc2ccccc2)(C(=O)O)C(=O)O)O[C@@H](n2cnc3c(NCc4ccccc4F)nc(Cl)nc32)[C@@H]1O [Example 67, 2-benzyl-2-(((2R,3S,4R,5R)-5-(2-chloro-6-((2-fluorobenzyl)amino)-9H-purin-9-yl)-3-ethynyl-3,4-dihydroxytetrahydrofuran-2-yl)methoxy)malonic acid]",0.8
15,"C#C[C@@]1(O)[C@@H](COC(Cc2ccccc2)(C(=O)O)C(=O)O)O[C@@H](n2cnc3c(N(C)CC4CC4)nc(Cl)nc32)[C@@H]1O [Example 75, 2-benzyl-2-(((2R,3S,4R,5R)-5-(2-chloro-6-((cyclopropylmethyl)-(methyl)amino)-9H-purin-9-yl)-3-ethynyl-3,4-dihydroxytetrahydrofuran-2-yl)methoxy)malonic acid]",0.6
16,"C#C[C@@]1(O)[C@@H](COC(Cc2ccccc2)(C(=O)O)C(=O)O)O[C@@H](n2cnc3c(NCc4ccc(F)cc4)nc(Cl)nc32)[C@@H]1O [Example 68, 2-benzyl-2-(((2R,3S,4R,5R)-5-(2-chloro-6-((4-fluorobenzyl)amino)-9H-purin-9-yl)-3-ethynyl-3,4-dihydroxytetrahydrofuran-2-yl)methoxy)malonic acid]",0.8

# The remaining lines, values ahead:
row,IC50 [nM],SMILES
1,2,"C#C[C@@]1(O)[C@@H](COC(Cc2ccc(NCCN(C)CC(=O)O)cc2)(C(=O)O)C(=O)O)O[C@@H](n2cnc3c(N)nc(Cl)nc32)[C@@H]1O [Example 155, 2-(((2R,3S,4R,5R)-5-(6-amino-2-chloro-9H-purin-9-yl)-3-ethynyl-3,4-dihydroxytetrahydrofuran-2-yl)methoxy)-2-(4-((2-((carboxymethyl)(methyl)amino)ethyl)amino)benzyl)malonic acid]"
2,3,"C#C[C@@]1(O)[C@@H](COC(Cc2ccccc2)(C(=O)O)C(=O)OCC)O[C@@H](n2cnc3c(NCc4ccccc4Cl)nc(Cl)nc32)[C@@H]1O (stereo partly drawn) [Example 108, 2-benzyl-2-(((2R,3S,4R,5R)-5-(2-chloro-6-((2-chlorobenzyl)amino)-9H-purin-9-yl)-3-ethynyl-3,4-dihydroxytetrahydrofuran-2-yl)methoxy)-3-ethoxy-3-oxopropanoic acid]"
3,108,"C#C[C@@]1(O)[C@@H](COC(Cc2ccccc2)(C(=O)O)C(=O)O)O[C@@H](n2cnc3c(N)nc(SCC)nc32)[C@@H]1O [Example 145, 2-(((2R,3S,4R,5R)-5-(6-amino-2-(ethylthio)-9H-purin-9-yl)-3-ethynyl-3,4-dihydroxytetrahydrofuran-2-yl)methoxy)-2-benzylmalonic acid]"
4,296,"C#C[C@@]1(O)[C@@H](COC(Cc2ccccc2)(C(=O)O)C(=O)NC)O[C@@H](n2cnc3c(NCC4CC4)nc(Cl)nc32)[C@@H]1O (stereo partly drawn) [Example 106, 2-benzyl-2-(((2R,3S,4R,5R)-5-(2-chloro-6-((cyclopropylmethyl)amino)-9H-purin-9-yl)-3-ethynyl-3,4-dihydroxytetrahydrofuran-2-yl)methoxy)-3-(methylamino)-3-oxopropanoic acid]"
5,> 100,"C#C[C@@]1(O)[C@@H](COC(Cc2ccc(N3CCCNC3=O)cc2)(C(=O)O)C(=O)O)O[C@@H](n2nc(C)c3ccc(Cl)nc32)[C@@H]1O [Example 131, 2-(((2R,3S,4R,5R)-5-(6-chloro-3-methyl-1H-pyrazolo[3,4-b]pyridin-1-yl)-3-ethynyl-3,4-dihydroxytetrahydrofuran-2-yl)methoxy)-2-(4-(2-oxotetrahydropyrimidin-1(2H)-yl)benzyl)malonic acid]"
6,0.58,"C#C[C@@]1(O)[C@@H](COC(Cc2ccc(-c3ccc[nH]c3=O)cc2)(C(=O)O)C(=O)O)O[C@@H](n2cnc3c(NC)nc(Cl)nc32)[C@@H]1O [Example 147, 2-(((2R,3S,4R,5R)-5-(2-chloro-6-(methylamino)-9H-purin-9-yl)-3-ethynyl-3,4-dihydroxytetrahydrofuran-2-yl)methoxy)-2-(4-(2-oxo-1,2-dihydropyridin-3-yl)benzyl)malonic acid]"
7,0.13,"C#C[C@@]1(O)[C@@H](COC(Cc2ccc(N3CCCN(CCO)C3=O)cc2)(C(=O)O)C(=O)O)O[C@@H](n2cnc3c(NC(C)C)nc(Cl)nc32)[C@@H]1O [Example 139, 2-(((2R,3S,4R,5R)-5-(2-chloro-6-(isopropylamino)-9H-purin-9-yl)-3-ethynyl-3,4-dihydroxytetrahydrofuran-2-yl)methoxy)-2-(4-(3-(2-hydroxyethyl)-2-oxotetrahydropyrimidin-1 (2H)-yl)benzyl)malonic acid]"
8,45,"C#C[C@@]1(O)[C@@H](CO[C@@](Cc2ccc(N3CCCNC3=O)cc2)(C(=O)O)C(=O)OCC)O[C@@H](n2cnc3c(N)nc(Cl)nc32)[C@@H]1O (single isomer, unassigned) [Example 165]"
